How the values were obtained:
Test in all cases: competitive isoTOP-ABPP
Type in all cases: binding
[1] = target: T1, ENOPH1 Enolase-phosphatase E1 (Homo sapiens, UniProt Q9UHY7); settings: for isoTOP-ABPP ratio (R) at liganded lysine Q9UHY7_K111: sol, 231
T1 construct: endogenous in cells; host or cells: MDA-MB-231 (soluble fraction of lysate)
Summary of the method: (§1)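 Probe: STP-alkyne, 0.1 mM, 1 h RT, after fragment pretreatment of lysate (esters 50 μM; guanidinylators 100 μM). Tags: light = compound, heavy = DMSO, via CuAAC. Replicates averaged if SD <60% of mean; otherwise lowest ratio used when any R <4.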

[2] = target: T2, GLOD4 Glyoxalase domain-containing protein 4 (Homo sapiens, UniProt Q9HC38); settings: for isoTOP-ABPP ratio (R) at liganded lysine Q9HC38_K305: sol, 231
T2 construct: endogenous in cells; host or cells: MDA-MB-231 (soluble fraction of lysate)
T2 sequence (Q9HC38 1-313): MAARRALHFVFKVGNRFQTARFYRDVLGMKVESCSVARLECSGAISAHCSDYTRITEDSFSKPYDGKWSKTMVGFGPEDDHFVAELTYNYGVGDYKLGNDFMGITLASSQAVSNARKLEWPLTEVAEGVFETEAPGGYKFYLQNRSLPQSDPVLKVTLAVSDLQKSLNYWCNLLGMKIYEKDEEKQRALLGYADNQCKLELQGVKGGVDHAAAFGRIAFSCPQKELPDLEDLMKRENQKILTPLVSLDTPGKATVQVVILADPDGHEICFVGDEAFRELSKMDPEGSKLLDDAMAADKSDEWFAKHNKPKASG
Summary of the method: as §1

[3] = target: T3, FAH Fumarylacetoacetase (Homo sapiens, UniProt P16930); settings: for isoTOP-ABPP ratio (R) at liganded lysine P16930_K241: sol, 231
T3 construct: isoTOP-ABPP experiments performed in cell lysates (in vitro); endogenous in cells; host or cells: soluble proteome of human cancer cell lines (MDA-MB-231; Ramos and Jurkat also prepared)
T3 sequence (P16930 1-419): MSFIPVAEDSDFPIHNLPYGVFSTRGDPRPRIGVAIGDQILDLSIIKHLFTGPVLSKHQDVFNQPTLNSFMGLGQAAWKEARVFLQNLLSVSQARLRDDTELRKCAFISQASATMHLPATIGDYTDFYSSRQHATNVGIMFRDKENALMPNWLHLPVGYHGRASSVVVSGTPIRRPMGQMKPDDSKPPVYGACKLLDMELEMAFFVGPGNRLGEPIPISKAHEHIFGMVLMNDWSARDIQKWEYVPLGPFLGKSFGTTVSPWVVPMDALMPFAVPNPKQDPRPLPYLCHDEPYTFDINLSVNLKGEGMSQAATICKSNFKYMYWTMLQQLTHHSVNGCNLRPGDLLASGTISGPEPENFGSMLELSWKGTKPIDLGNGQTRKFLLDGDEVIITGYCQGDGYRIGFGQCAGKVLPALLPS
Summary of the method: as §1

[4] = target: T4, TRMT10C Mitochondrial ribonuclease P protein 1 (Homo sapiens, UniProt Q7L0Y3); settings: for isoTOP-ABPP ratio (R) at liganded lysine Q7L0Y3_K325: sol, 231
T4 construct: isoTOP-ABPP experiments performed in cell lysates (in vitro); endogenous in cells; host or cells: soluble proteome of human cancer cell lines (MDA-MB-231; Ramos and Jurkat also prepared)
T4 sequence (Q7L0Y3 40-403): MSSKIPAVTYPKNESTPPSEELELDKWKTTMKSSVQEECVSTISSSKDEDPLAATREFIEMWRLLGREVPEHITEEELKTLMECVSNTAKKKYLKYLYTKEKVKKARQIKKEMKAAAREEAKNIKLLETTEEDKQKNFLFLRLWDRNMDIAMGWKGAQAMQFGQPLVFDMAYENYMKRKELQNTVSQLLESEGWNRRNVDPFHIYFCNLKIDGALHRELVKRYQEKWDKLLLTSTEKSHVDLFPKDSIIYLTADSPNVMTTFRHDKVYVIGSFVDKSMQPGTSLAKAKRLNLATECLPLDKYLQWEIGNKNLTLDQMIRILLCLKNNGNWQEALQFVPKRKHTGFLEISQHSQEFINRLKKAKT
Summary of the method: as §1

[5] = target: T5, POLR2L DNA-directed RNA polymerases I, II, and III subunit (Homo sapiens, UniProt P62875); settings: for isoTOP-ABPP ratio (R) at liganded lysine P62875_K67: 50 uM, in vitro, sol, 231; for isoTOP-ABPP ratio, lysine P62875_K67: 50 uM_231_sol_in vitro
T5 construct: isoTOP-ABPP experiments performed in cell lysates (in vitro); endogenous in cells; host or cells: soluble proteome of human cancer cell lines (MDA-MB-231, Ramos, Jurkat)
Summary of the method: as §1

T1 sequence (Q9UHY7 whole entry): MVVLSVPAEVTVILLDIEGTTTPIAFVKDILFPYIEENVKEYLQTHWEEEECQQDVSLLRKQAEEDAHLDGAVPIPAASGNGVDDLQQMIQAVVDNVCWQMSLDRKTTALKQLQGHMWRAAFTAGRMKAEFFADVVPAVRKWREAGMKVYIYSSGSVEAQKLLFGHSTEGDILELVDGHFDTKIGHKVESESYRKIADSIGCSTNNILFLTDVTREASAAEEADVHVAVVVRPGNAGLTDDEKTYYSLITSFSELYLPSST

## COc1cc(CCC(=O)Oc2ccc([N+](=O)[O-])cc2[N+](=O)[O-])cc(OC)c1OC [fragment 33, 2,4-Dinitrophenyl 3-(3,4,5-trimethoxyphenyl)propanoate]
[1]; 50 uM, 231 sol, in vitro
  isoTOP-ABPP reactivity ratio at lysine Q9UHY7_K111: 0.9
[2]; 50 uM, 231 sol, in vitro
  isoTOP-ABPP reactivity ratio at lysine Q9HC38_K305: 0.4
[3]; 50 uM, 231 sol, in vitro
  isoTOP-ABPP reactivity ratio at lysine P16930_K241: 1.7
[4]; 50 uM, 231 sol, in vitro
  isoTOP-ABPP reactivity ratio at lysine Q7L0Y3_K325: 0.9

## O=C(CCc1coc2cc(F)ccc2c1=O)Oc1ccc([N+](=O)[O-])cc1[N+](=O)[O-] [fragment 36, 2,4-Dinitrophenyl 3-(7-fluoro-4-oxo-4H-chromen-3-yl)propanoate]
[1]; 50 uM, in vitro
  isoTOP-ABPP ratio (R) at liganded lysine Q9UHY7_K111: 0.9
[5]
  isoTOP-ABPP ratio (R) at liganded lysine P62875_K67: 4.1
[3]; 50 uM, in vitro
  isoTOP-ABPP ratio (R) at liganded lysine P16930_K241: 3.6

## O=C(CC12CC3CC(CC(C3)C1)C2)Oc1ccc([N+](=O)[O-])cc1[N+](=O)[O-] [fragment 38, 2,4-Dinitrophenyl 2-(adamantan-1-yl)acetate]
[1]; 50 uM, in vitro
  isoTOP-ABPP ratio (R) at liganded lysine Q9UHY7_K111: 1.1
[2]; 50 uM, in vitro
  isoTOP-ABPP ratio (R) at liganded lysine Q9HC38_K305: 20.0
[3]; 50 uM, in vitro
  isoTOP-ABPP ratio (R) at liganded lysine P16930_K241: 1.0
[4]; 50 uM, in vitro
  isoTOP-ABPP ratio (R) at liganded lysine Q7L0Y3_K325: 0.8

## O=C(Oc1ccc([N+](=O)[O-])cc1[N+](=O)[O-])C(c1ccccc1)(c1ccccc1)c1ccccc1 [fragment 42, 2,4-Dinitrophenyl 2,2,2-triphenylacetate]
[5]
  isoTOP-ABPP ratio (R) at liganded lysine P62875_K67: 1.0
[2]; 50 uM, in vitro
  isoTOP-ABPP ratio (R) at liganded lysine Q9HC38_K305: 0.9
[3]; 50 uM, in vitro
  isoTOP-ABPP ratio (R) at liganded lysine P16930_K241: 0.9
[4]; 50 uM, in vitro
  isoTOP-ABPP ratio (R) at liganded lysine Q7L0Y3_K325: 1.0

## CC(=O)Oc1ccc([N+](=O)[O-])cc1[N+](=O)[O-] [fragment 43, 2,4-Dinitrophenyl acetate]
[1]; 50 uM, in vitro
  isoTOP-ABPP ratio (R) at liganded lysine Q9UHY7_K111: 0.9
[2]; 50 uM, in vitro
  isoTOP-ABPP ratio (R) at liganded lysine Q9HC38_K305: 0.7
[3]; 50 uM, in vitro
  isoTOP-ABPP ratio (R) at liganded lysine P16930_K241: 1.4
[4]; 50 uM, in vitro
  isoTOP-ABPP ratio (R) at liganded lysine Q7L0Y3_K325: 1.0

## O=C(ON1C(=O)CCC1=O)c1cc(C(F)(F)F)cc(C(F)(F)F)c1 [fragment 46, 3,5-Bis(trifluoromethyl)benzoic acid NHS ester]
[1]; 50 uM_231_sol_in vitro
  isoTOP-ABPP ratio, lysine Q9UHY7_K111: 1.1
[5]
  isoTOP-ABPP ratio, lysine P62875_K67: 1.0
[3]; 50 uM_231_sol_in vitro
  isoTOP-ABPP ratio, lysine P16930_K241: 8.1
[4]; 50 uM_231_sol_in vitro
  isoTOP-ABPP ratio, lysine Q7L0Y3_K325: 1.0

## O=C(Oc1c(F)c(F)c(C(F)(F)F)c(F)c1F)c1cc(C(F)(F)F)cc(C(F)(F)F)c1 [fragment 47, 2,3,5,6-Tetrafluoro-4-(trifluoromethyl)phenyl 3,5-bis(trifluoromethyl)benzoate]
[1]; 50 uM_231_sol_in vitro
  isoTOP-ABPP ratio, lysine Q9UHY7_K111: 7.8
[5]
  isoTOP-ABPP ratio, lysine P62875_K67: 1.0
[3]; 50 uM_231_sol_in vitro
  isoTOP-ABPP ratio, lysine P16930_K241: 1.2
[4]; 50 uM_231_sol_in vitro
  isoTOP-ABPP ratio, lysine Q7L0Y3_K325: 1.1

## O=C(Oc1c(F)c(F)cc(F)c1F)c1cc(C(F)(F)F)cc(C(F)(F)F)c1 [fragment 48, 2,3,5,6-Tetrafluorophenyl 3,5-bis(trifluoromethyl)benzoate]
[1]; 50 uM_231_sol_in vitro
  isoTOP-ABPP ratio, lysine Q9UHY7_K111: 0.9
[5]
  isoTOP-ABPP ratio, lysine P62875_K67: 0.9
[3]; 50 uM_231_sol_in vitro
  isoTOP-ABPP ratio, lysine P16930_K241: 2.3

## COC(=O)NC(=NC(=O)OCC1c2ccccc2-c2ccccc21)n1cccn1 [fragment 49, N-Methoxycarbonyl-N′-9-fluorenylmethoxycarbonyl-pyrazole-1-carboxamidine]
[1]; 100 uM_231_sol_in vitro
  isoTOP-ABPP ratio, lysine Q9UHY7_K111: 20.0
[2]; 100 uM_231_sol_in vitro
  isoTOP-ABPP ratio, lysine Q9HC38_K305: 1.2
[3]; 100 uM_231_sol_in vitro
  isoTOP-ABPP ratio, lysine P16930_K241: 1.3
[4]; 100 uM_231_sol_in vitro
  isoTOP-ABPP ratio, lysine Q7L0Y3_K325: 1.2
